# Read-outs that look alike come from different tables or passages of the source.
# Experiments:
# [1] = biological target: Glucocerebrosidase (Homo sapiens (Human), UniProt P04062); test: Glucocerebrosidase activity assay with blue substrate (4MU-Glc); format: biochemical
# Method: The compounds in DMSO solution 0.5 μL/well were transferred to a black 96-well plate. The final titration was 24 nM to 50 μM, 12 concentrations, 2 times dilution. […] After 5 min of incubation at room temperature, the enzyme reaction was initiated by the addition of 33 μL/well blue substrate. Final concentrations of the blue substrate (4MU-Glc) was 1.5 mM. The blue substrate reaction was terminated by the addition of 33 μL/well stop solution (1 M NaOH and 1 M glycine mixture, pH 10) after 30 min of incubation at 37° C. The fluorescence was then measured in the Biotek Synergy H1 multi-mode plate reader with Ex=365 nm and Em=440 nm.
# Additional compounds were prepared and tested according to the procedures provided in the examples above.
# Additional substituted quinazoline compounds were prepared and tested according to the procedures provided in the examples above.
# [2] = biological target: wild-type GCase (Homo sapiens (Human), UniProt P04062); test: GCase enzyme activity assay (4MU-β-Glc substrate, no taurocholate); format: biochemical
# wild-type GCase, sequence (P04062 40-536): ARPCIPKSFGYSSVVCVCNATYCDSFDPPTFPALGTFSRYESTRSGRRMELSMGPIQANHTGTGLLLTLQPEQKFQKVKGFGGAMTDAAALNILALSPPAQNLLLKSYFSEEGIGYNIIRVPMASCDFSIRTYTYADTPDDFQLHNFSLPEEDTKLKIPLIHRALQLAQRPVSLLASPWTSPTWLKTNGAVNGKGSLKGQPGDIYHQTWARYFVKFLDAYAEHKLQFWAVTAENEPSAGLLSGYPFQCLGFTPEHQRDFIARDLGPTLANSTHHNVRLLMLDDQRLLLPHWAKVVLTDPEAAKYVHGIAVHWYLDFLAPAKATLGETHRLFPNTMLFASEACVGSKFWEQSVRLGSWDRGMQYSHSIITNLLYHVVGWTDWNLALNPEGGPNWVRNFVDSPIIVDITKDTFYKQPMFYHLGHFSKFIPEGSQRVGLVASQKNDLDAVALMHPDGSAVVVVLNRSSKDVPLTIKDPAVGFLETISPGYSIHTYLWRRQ
# Method: In previous studies, high concentrations of taurocholate (4-10 mM) were used to improve the signal in GCase enzyme activity assays^16,27,28. […] Here we describe our modifications of the substituents on the quinazoline ring.
# 4-Methylumbelliferyl β-D-glucopyranoside (4MU-β-Glc), 4-methylumbelliferyl α-D-glucopyranoside, 4-methylumbelliferyl α-D-galactopyranoside, and buffer components were purchased from Sigma-Aldrich (St. Louis, Mo.). The recombinant wild-type GCase enzyme velaglucerase alfa (Vpriv®, Shire Human Genetic Therapies, Inc.), acid α-glucosidase enzyme alglucosidase alfa (Lumizyme®, Genzyme Corporation), α-galactosidase A enzyme agalsidase beta (Fabrazyme®, Genzyme Corporation) were used in activity assays. […] A solution of 1 M sodium hydroxide and 1 M glycine (pH 10) was used as the stop solution for all three enzyme activity assays.
# GCase Enzyme Activity Assay. The compounds in DMSO solution (0.5 μL/well) were transferred to a black 96-well plate (the final titration started from 100 μM, a 12 or 24-point 2-fold dilution series). […] After 5 min of incubation at room temperature, the enzyme reaction was initiated by the addition of blue substrate (4MU-β-Glc) (33 μL/well). The final concentration of the blue substrate was 1.5 mM. The blue substrate reaction was terminated by the addition of 33 μL/well stop solution (1 M NaOH and 1 M glycine mixture, pH 10) after 30 min of incubation at 37° C. […] The selected compounds were further assayed under pH 5.0 and pH 7.0 to evaluate their selectivity under various pH conditions.
# [3] = cells marked (act), read-out: IC50 or AC50 (μM): AC50 (act)
# [4] = cells marked activator, read-out: Activity AC50 or IC50 (μM unless nM indicated): AC50, activator
# Glucocerebrosidase, sequence (P04062 40-536): as above
smiles,measurement,setting,value
CC(C)(C)OC(=O)N1CCN(c2nc(-c3cccnc3)nc3ccccc23)CC1 [compound 22],AC50,[1]; [3],10 µM
CN(CCOc1ccccc1)c1nc(-c2ccoc2)nc2ccccc12 [compound 134],AC50,[1]; [4],0.65 µM
CN(c1nc(-c2cccnc2)nc2ccccc12)C1Cc2ccc(C#CCCCCCCCCC(=O)ON3C(=O)CCC3=O)cc2C1 (centres unmarked) [compound 105],"Activity AC50 or IC50 (μM unless nM indicated): AC50, activator",[1]; cells marked activator,Weak activator
c1cncc(-c2nc(NC3COc4ccccc4C3)c3ccccc3n2)c1 (centres unmarked) [Compound 9f],IC50,"[2]; Table 4, pH 5.9, mean ± SD, triplicate",0.035 ± 0.003 µM
CCN(CC1COc2ccccc2O1)c1nc(-c2cccnc2)nc2ccccc12 (centres unmarked) [compound 28],AC50,[1]; [3],2.82 µM
c1cncc(-c2nc(N3CCCOCC3)c3ccccc3n2)c1 [compound 116],"Activity AC50 or IC50 (μM unless nM indicated): AC50, activator",[1]; cells marked activator,Weak activator
CN(Cc1ccncc1)c1nc(-c2cccnc2)nc2ccccc12 [compound 8],AC50,[1]; [3],15.8 µM
c1cncc(-c2nc(NC3CCCc4ccccc43)c3ccccc3n2)c1 (centres unmarked) [Compound 9d],inhibitory activity against GCase (in words),[2],low micromolar range
Nc1ccc(CCNc2nc(-c3cccnc3)nc3ccccc23)cc1 [compound 71],AC50,[1]; [3],2 µM
CN(Cc1cccnc1)c1nc(-c2cccnc2)nc2ccccc12 [compound 7],AC50,[1]; [3],12.6 µM
c1cncc(-c2nc(N3CCN(CC4COc5ccccc5O4)CC3)c3ccccc3n2)c1 (centres unmarked) [compound 30],AC50,[1]; [3],3.13 µM
Cc1ccc(S(=O)(=O)N2CCN(c3nc(-c4cccnc4)nc4ccccc34)CC2)cc1 [compound 26],AC50,[1]; [3],1 µM
CN(CCOc1ccc(C#CCOCCOCCNc2nc(-c3cccnc3)nc3ccccc23)cc1)c1nc(-c2cccnc2)nc2ccccc12 [compound 110],"Activity AC50 or IC50 (μM unless nM indicated): AC50, activator",[1]; cells marked activator,Weak activator
Cc1ccc(OCCNc2nc(-c3cccnc3)nc3ccccc23)cc1 [compound 90],AC50,[1]; [4],0.62 µM
CN(Cc1nc2ccccc2o1)c1nc(-c2cccnc2)nc2ccccc12 [compound 18],AC50,[1]; [3],11.2 µM
C#CCOCCOCCNc1nc(-c2cccnc2)nc2ccccc12 [compound 113],AC50,[1]; [4],12.6 µM
CN(Cc1ccc2ccccc2c1)c1nc(-c2cccnc2)nc2ccccc12 [compound 17],AC50,[1]; [3],1.56 µM
CN(CCOc1ccccc1)c1nc(-c2ccco2)nc2ccccc12 [compound 133],AC50,[1]; [4],31.6 µM
CN(Cc1ccc2nsnc2c1)c1nc(-c2cccnc2)nc2ccccc12 [compound 21],AC50,[1]; [3],3.55 µM
Cc1ccc(OCCN(C)c2nc(-c3cccnc3)nc3ccccc23)cc1 [compound 136],AC50,[1]; [4],3.55 µM
CN(c1nc(-c2cccnc2)nc2ccccc12)C1CCCC1 [compound 118],AC50,[1]; [4],22.4 µM
CN1CCN(c2ccc(C(=O)N3CCN(c4nc(-c5cccnc5)nc5ccccc45)CC3)cc2)CC1 [compound 38],IC50 or AC50 (μM): AC50 (act),[1]; cells marked (act),Weak (act)
CN(CCc1ccccc1)c1nc(-c2cccnc2)nc2ccccc12 [compound 122],AC50,[1]; [4],5.01 µM
CN(Cc1ccc2c(c1)OCCO2)c1nc(-c2cccnc2)nc2ccccc12 [compound 19],AC50,[1]; [3],3.98 µM
c1cncc(-c2nc(NCCC3COc4ccccc4O3)c3ccccc3n2)c1 (centres unmarked) [compound 27],AC50,[1]; [3],0.6 µM
CN(Cc1cnccn1)c1nc(-c2cccnc2)nc2ccccc12 [compound 9],AC50,[1]; [3],14.1 µM
CN(Cc1cnc2ccccc2n1)c1nc(-c2cccnc2)nc2ccccc12 [compound 10],AC50,[1]; [3],0.89 µM
CN(CCOc1ccc(C#CCCCCCCC#Cc2ccc(OCCN(C)c3nc(-c4cccnc4)nc4ccccc34)cc2)cc1)c1nc(-c2cccnc2)nc2ccccc12 [compound 111],AC50,[1]; [4],35 µM
CN(CCOc1ccccc1)c1nc(-c2cncnc2)nc2ccccc12 [compound 127],AC50,[1]; [4],1.25 µM
CN(Cc1ccccn1)c1nc(-c2cccnc2)nc2ccccc12 [compound 5],AC50,[1]; [3],35.5 µM
c1ccc(Nc2nc(-c3cccnc3)nc3ccccc23)cc1 [compound 50],IC50 or AC50 (μM): AC50 (act),[1]; cells marked (act),Weak (act)
CN(CCOc1ccccc1)c1nc(-c2ccccc2F)nc2ccccc12 [compound 128],AC50,[1]; [4],1.25 µM
CN(CCOc1ccc(C#CCCCCCCCCC(=O)ON2C(=O)CCC2=O)cc1)c1nc(-c2cccnc2)nc2ccccc12 [compound 153],"Activity AC50 or IC50 (μM unless nM indicated): AC50, activator",[1]; cells marked activator,activator
CC(COc1ccccc1)N(C)c1nc(-c2cccnc2)nc2ccccc12 (centres unmarked) [compound 139],AC50,[1]; [4],5.62 µM
c1cncc(-c2nc(NC3CCc4ccccc43)c3ccccc3n2)c1 (centres unmarked) [Compound 9e],inhibitory activity against GCase (in words),[2],low micromolar range
CN(Cc1scc2c1OCCO2)c1nc(-c2cccnc2)nc2ccccc12 [compound 24],AC50,[1]; [3],2 µM
COc1ccccc1OCCN(C)c1nc(-c2cccnc2)nc2ccccc12 [compound 135],AC50,[1]; [4],22.4 µM
[N-]=[N+]=Nc1c(F)c(F)c(CNc2nc(-c3cccnc3)nc3ccccc23)c(F)c1F [compound 37],IC50 or AC50 (μM): AC50 (act),[1]; cells marked (act),Weak (act)
CN(CC1COCCO1)c1nc(-c2cccnc2)nc2ccccc12 (centres unmarked) [compound 6],AC50,[1]; [3],11.2 µM
c1ccc(C2CCCN(c3nc(-c4cccnc4)nc4ccccc34)C2)cc1 (centres unmarked) [compound 82],IC50 or AC50 (μM): AC50 (act),[1]; cells marked (act),Weak (act)
c1ccc(CC2CCCCN2c2nc(-c3cccnc3)nc3ccccc23)cc1 (centres unmarked) [compound 83],AC50,[1]; [3],2.24 µM
CN(CCCOc1ccccc1)c1nc(-c2cccnc2)nc2ccccc12 [compound 137],AC50,[1]; [4],5.01 µM
CN(c1nc(-c2cccnc2)nc2ccccc12)C1CCCCCC1 [compound 121],AC50,[1]; [4],8.91 µM
CN(CCOc1ccccc1)c1nc(-c2ccccn2)nc2ccccc12 [compound 143],"Activity AC50 or IC50 (μM unless nM indicated): AC50, activator",[1]; cells marked activator,Weak activator
CC(CN(C)c1nc(-c2cccnc2)nc2ccccc12)Oc1ccccc1 (centres unmarked) [compound 138],AC50,[1]; [4],5.62 µM
CN(Cc1ccc(-n2ccnc2)cc1)c1nc(-c2cccnc2)nc2ccccc12 [compound 31],AC50,[1]; [3],19.9 µM
CC(C)Cc1noc(CN(C)c2nc(-c3cccnc3)nc3ccccc23)n1 [compound 25],AC50,[1]; [3],35.5 µM
CN1CCN(c2ccc(CNc3nc(-c4cccnc4)nc4ccccc34)cc2)CC1 [compound 36],AC50,[1]; [3],39.8 µM
CN(CCOc1ccccc1)c1nc(Cl)nc2ccccc12 [compound 124],AC50,[1]; [4],10 µM
CN(Cc1ccc2c(c1)OCO2)c1nc(-c2cccnc2)nc2ccccc12 [compound 11],AC50,[1]; [3],1 µM
CN(CCc1cccc(F)c1)c1nc(-c2cccnc2)nc2ccccc12 [compound 59],AC50,[1]; [3],4.47 µM
c1ccc(CC2CCCN(c3nc(-c4cccnc4)nc4ccccc34)C2)cc1 (centres unmarked) [compound 87],AC50,[1]; [3],2.51 µM
COc1ccccc1CN(C)c1nc(-c2cccnc2)nc2ccccc12 [compound 16],AC50,[1]; [3],3.13 µM
CN(c1nc(-c2cccnc2)nc2ccccc12)C1CCCCC1 [compound 56],AC50,[1]; [3],5.01 µM
CN(CCCCCCCCCCN(C)c1nc(-c2cccnc2)nc2ccccc12)c1nc(-c2cccnc2)nc2ccccc12 [compound 112],"Activity AC50 or IC50 (μM unless nM indicated): AC50, activator",[1]; cells marked activator,Weak activator
CN(c1nc(-c2cccnc2)nc2ccccc12)C1CCCCCCC1 [compound 123],"Activity AC50 or IC50 (μM unless nM indicated): AC50, activator",[1]; cells marked activator,Weak activator
c1cncc(-c2nc(N3CCOc4ccccc4C3)c3ccccc3n2)c1 [compound 115],AC50,[1]; [4],7.94 µM
CN1Cc2ccc(CN(C)c3nc(-c4cccnc4)nc4ccccc34)cc2C1 [compound 13],AC50,[1]; [3],44.7 µM
Nc1nc(-c2cccnc2)nc2ccccc12 [compound 35],IC50 or AC50 (μM): AC50 (act),[1]; cells marked (act),Weak (act)
COC(=O)CCCCCCCCC#Cc1ccc(OCCN(C)c2nc(-c3cccnc3)nc3ccccc23)cc1 [compound 109],"Activity AC50 or IC50 (μM unless nM indicated): AC50, activator",[1]; cells marked activator,Weak activator
CN(CCCCc1ccccc1)c1nc(-c2cccnc2)nc2ccccc12 [compound 120],AC50,[1]; [4],3.16 µM
COC(=O)CCCCCCCCCCc1ccc(OCCN(C)c2nc(-c3cccnc3)nc3ccccc23)cc1 [compound 117],AC50,[1]; [4],7.08 µM
c1cncc(-c2nc(N3C4CCC3CC4)c3ccccc3n2)c1 [compound 64],AC50,[1]; [3],2.24 µM
CC(C)(C)Nc1nc(-c2cccnc2)nc2ccccc12 [compound 54],IC50 or AC50 (μM): AC50 (act),[1]; cells marked (act),Weak (act)
CN(CC1COc2ccccc2O1)c1nc(-c2cccnc2)nc2ccccc12 (centres unmarked) [compound 3],AC50,[1]; [3],1.78 µM
CN(Cc1nc2ccccc2s1)c1nc(-c2cccnc2)nc2ccccc12 [compound 14],AC50,[1]; [3],1.12 µM
CN(CCC1COc2ccccc2O1)c1nc(-c2cccnc2)nc2ccccc12 (centres unmarked) [compound 32],AC50,[1]; [3],3.16 µM
CN(CCOc1ccccc1)c1nc(-c2ccncc2)nc2ccccc12 [compound 130],AC50,[1]; [4],3.98 µM

# Reference: patent publication US10501435B2, “Substituted quinazoline compounds and uses thereof for modulating glucocerebrosidase activity” (Northwestern University, priority 2015, dated 2019)
